Results as given in ChEMBL document CHEMBL1201862, “PubChem BioAssay data set” (2004).
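All cell lines were grown in 96-well plates and treated with compound for 48 hours. Here, GI50 denotes the concentration required for 50% inhibition of growth.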 Activity calls are given as the source filed them. Rule as the data show it: active = GI50 up to about 1.1 µM and inactive = higher.

Assays:
Test in all cases: NCI-60 cell line screen, 48 h
IGROV-1 = system: IGROV-1
NCI-H226 = system: NCI-H226
CAKI-1 = system: CAKI-1
COLO 205 = system: COLO 205
A498 = system: A498
SF-539 = system: SF-539
SK-MEL-28 = system: SK-MEL-28
K562 = system: K562
KM12 = system: KM12
SNB-19 = system: SNB-19
Malme-3M = system: Malme-3M
RXF 393 = system: RXF 393
NCI-H460 = system: NCI-H460
OVCAR-5 = system: OVCAR-5
U-251 = system: U-251
A549 = system: A549
UACC-62 = system: UACC-62
TK-10 = system: TK-10
NCI-H23 = system: NCI-H23
HOP-62 = system: HOP-62

Structure (SMILES)	GI50 (IGROV-1)	GI50 (NCI-H226)	GI50 (CAKI-1)	GI50 (COLO 205)	GI50 (A498)	GI50 (SF-539)	GI50 (SK-MEL-28)	GI50 (K562)	GI50 (KM12)	GI50 (SNB-19)	GI50 (Malme-3M)	GI50 (RXF 393)	GI50 (NCI-H460)	GI50 (OVCAR-5)	GI50 (U-251)	GI50 (A549)	GI50 (UACC-62)	GI50 (TK-10)	GI50 (NCI-H23)	GI50 (HOP-62)
CC1C2(C)OC(=N)C(C#N)(C(C)O2)C1(C#N)C#N (stereo not given)	39.5 µM (inactive)	> 100 µM (inactive)	13.6 µM (inactive)	12.1 µM (inactive)	87.7 µM (inactive)	22.1 µM (inactive)	27.4 µM (inactive)	34.9 µM (inactive)	49.8 µM (inactive)	> 10 µM (inactive)	25 µM (inactive)	18.2 µM (inactive)	19.6 µM (inactive)	30.5 µM (inactive)	21.4 µM (inactive)	79.1 µM (inactive)	19.8 µM (inactive)	36.8 µM (inactive)	28.8 µM (inactive)	–
N=C(N)c1ccc(/C=C/c2ccc(C(=N)N)cc2)cc1	70.8 µM (inactive)	> 100 µM (inactive)	94.6 µM (inactive)	–	14.9 µM (inactive)	–	45.8 µM (inactive)	49.8 µM (inactive)	> 100 µM (inactive)	> 100 µM (inactive)	53 µM (inactive)	> 100 µM (inactive)	34.5 µM (inactive)	81.8 µM (inactive)	33.5 µM (inactive)	39.7 µM (inactive)	97.9 µM (inactive)	24.5 µM (inactive)	78.5 µM (inactive)	41.2 µM (inactive)
Cc1cccc(-n2c(C)nc3ccc(NC4OC(CO)C(O)C(O)C4O)cc3c2=O)c1 (stereo not given)	> 100 µM (inactive)	> 100 µM (inactive)	> 100 µM (inactive)	> 100 µM (inactive)	> 100 µM (inactive)	–	> 100 µM (inactive)	> 100 µM (inactive)	> 100 µM (inactive)	> 100 µM (inactive)	> 100 µM (inactive)	> 100 µM (inactive)	> 100 µM (inactive)	> 100 µM (inactive)	> 100 µM (inactive)	–	> 100 µM (inactive)	> 100 µM (inactive)	> 100 µM (inactive)	> 100 µM (inactive)
CCOC(=O)C/C(N)=C(\C#N)C(=O)OCC	> 100 µM (inactive)	> 100 µM (inactive)	> 100 µM (inactive)	> 100 µM (inactive)	> 100 µM (inactive)	> 100 µM (inactive)	> 100 µM (inactive)	> 100 µM (inactive)	> 100 µM (inactive)	> 100 µM (inactive)	> 100 µM (inactive)	> 100 µM (inactive)	> 100 µM (inactive)	> 100 µM (inactive)	> 100 µM (inactive)	> 100 µM (inactive)	> 100 µM (inactive)	> 100 µM (inactive)	> 100 µM (inactive)	–
CCOc1ccc2ccccc2c1NC1=NCCO1	33.9 µM (inactive)	25.7 µM (inactive)	–	36.6 µM (inactive)	35.1 µM (inactive)	49.3 µM (inactive)	> 100 µM (inactive)	19.8 µM (inactive)	24.9 µM (inactive)	29.6 µM (inactive)	39.5 µM (inactive)	98.6 µM (inactive)	12.7 µM (inactive)	> 100 µM (inactive)	45.3 µM (inactive)	61 µM (inactive)	39.4 µM (inactive)	> 100 µM (inactive)	28.8 µM (inactive)	28.2 µM (inactive)
COC(=O)c1cc(C)n2c1CS[C@@H]2c1ccccc1	44.4 µM (inactive)	28.8 µM (inactive)	38.7 µM (inactive)	26.9 µM (inactive)	27.4 µM (inactive)	–	> 100 µM (inactive)	14.1 µM (inactive)	35.1 µM (inactive)	66.1 µM (inactive)	27.6 µM (inactive)	18.6 µM (inactive)	–	> 100 µM (inactive)	32 µM (inactive)	34.7 µM (inactive)	–	66.4 µM (inactive)	34.5 µM (inactive)	37.8 µM (inactive)
O=[N+]([O-])C1=Cc2c(O)ccc(O)c2C2c3ccccc3NC12 (stereo not given)	13.5 µM (inactive)	61.2 µM (inactive)	4.36 µM (inactive)	11.6 µM (inactive)	14.7 µM (inactive)	30.9 µM (inactive)	18.5 µM (inactive)	9.27 µM (inactive)	9.04 µM (inactive)	12.2 µM (inactive)	–	13.2 µM (inactive)	12.8 µM (inactive)	16.1 µM (inactive)	12.9 µM (inactive)	17.3 µM (inactive)	6.32 µM (inactive)	16.1 µM (inactive)	4.24 µM (inactive)	11.3 µM (inactive)
CS(=O)(=O)c1nc(N)nc2nc[nH]c12	> 100 µM (inactive)	> 100 µM (inactive)	> 100 µM (inactive)	> 100 µM (inactive)	> 100 µM (inactive)	> 100 µM (inactive)	> 100 µM (inactive)	> 100 µM (inactive)	> 100 µM (inactive)	> 100 µM (inactive)	–	> 100 µM (inactive)	> 100 µM (inactive)	> 100 µM (inactive)	> 100 µM (inactive)	> 100 µM (inactive)	> 100 µM (inactive)	> 100 µM (inactive)	> 100 µM (inactive)	> 100 µM (inactive)
Cc1ccc(Nc2nc(N)nc3c2ncn3C2OC(CO)C(O)C2O)cc1 (stereo not given)	> 100 µM (inactive)	> 100 µM (inactive)	> 100 µM (inactive)	> 100 µM (inactive)	> 100 µM (inactive)	> 100 µM (inactive)	> 100 µM (inactive)	> 100 µM (inactive)	> 100 µM (inactive)	> 100 µM (inactive)	> 100 µM (inactive)	> 100 µM (inactive)	–	> 100 µM (inactive)	> 100 µM (inactive)	> 100 µM (inactive)	> 100 µM (inactive)	> 100 µM (inactive)	> 100 µM (inactive)	> 100 µM (inactive)
C/C(Cl)=N/OC(=O)Nc1ccc(S(N)(=O)=O)c(C)c1	15.4 µM (inactive)	23.6 µM (inactive)	1.83 µM (inactive)	2.17 µM (inactive)	18.2 µM (inactive)	–	13.6 µM (inactive)	1.34 µM (inactive)	18.6 µM (inactive)	18.1 µM (inactive)	2.08 µM (inactive)	16.9 µM (inactive)	39.9 µM (inactive)	18.3 µM (inactive)	18.5 µM (inactive)	17.5 µM (inactive)	15.7 µM (inactive)	5.58 µM (inactive)	18.1 µM (inactive)	19.9 µM (inactive)
O=c1c2ccc(Cl)cc2oc2c(CNc3ccc(S(=O)(=O)Nc4nccs4)cc3)cccc12	> 100 µM (inactive)	> 100 µM (inactive)	0.951 µM (active)	> 100 µM (inactive)	> 100 µM (inactive)	99.1 µM (inactive)	> 100 µM (inactive)	> 100 µM (inactive)	> 100 µM (inactive)	> 100 µM (inactive)	> 100 µM (inactive)	> 100 µM (inactive)	–	> 100 µM (inactive)	> 100 µM (inactive)	> 100 µM (inactive)	> 100 µM (inactive)	> 100 µM (inactive)	> 100 µM (inactive)	> 100 µM (inactive)
C1=C2C3=[N+](CCCC3)CC2Cc2sccc21 (stereo not given)	> 100 µM (inactive)	> 100 µM (inactive)	> 100 µM (inactive)	67.1 µM (inactive)	47.6 µM (inactive)	–	> 100 µM (inactive)	> 100 µM (inactive)	45.6 µM (inactive)	86.9 µM (inactive)	49.1 µM (inactive)	> 100 µM (inactive)	52.7 µM (inactive)	> 100 µM (inactive)	29.4 µM (inactive)	30 µM (inactive)	> 100 µM (inactive)	> 100 µM (inactive)	> 100 µM (inactive)	81.7 µM (inactive)
O=S(=O)(O)c1cccc2c(/N=N/c3c(O)ccc4ccccc34)cccc12	> 100 µM (inactive)	> 100 µM (inactive)	> 100 µM (inactive)	> 100 µM (inactive)	> 100 µM (inactive)	–	> 100 µM (inactive)	> 100 µM (inactive)	> 100 µM (inactive)	> 100 µM (inactive)	> 100 µM (inactive)	> 100 µM (inactive)	–	> 100 µM (inactive)	> 100 µM (inactive)	> 100 µM (inactive)	> 100 µM (inactive)	> 100 µM (inactive)	> 100 µM (inactive)	> 100 µM (inactive)
CCCCCCCCCCCCCCCCOP(=O)(O)Oc1ccc(/C=C\c2ccc(OP(=O)(O)OCCCCCCCCCCCCCCCC)cc2)cc1	30.8 µM (inactive)	42.7 µM (inactive)	> 100 µM (inactive)	17.5 µM (inactive)	83.9 µM (inactive)	–	> 100 µM (inactive)	36.1 µM (inactive)	56.2 µM (inactive)	64.1 µM (inactive)	> 100 µM (inactive)	2.47 µM (inactive)	56.4 µM (inactive)	> 100 µM (inactive)	34 µM (inactive)	82.4 µM (inactive)	> 100 µM (inactive)	25.1 µM (inactive)	23.5 µM (inactive)	38.1 µM (inactive)
c1ccc(-c2nc(-c3ccccc3)c(-c3ccccc3)[nH]2)cc1	> 91.6 µM (inactive)	> 100 µM (inactive)	> 100 µM (inactive)	> 100 µM (inactive)	> 100 µM (inactive)	> 100 µM (inactive)	> 100 µM (inactive)	–	> 93.8 µM (inactive)	> 100 µM (inactive)	36.1 µM (inactive)	> 100 µM (inactive)	44.9 µM (inactive)	> 100 µM (inactive)	42.3 µM (inactive)	> 100 µM (inactive)	> 94.4 µM (inactive)	> 100 µM (inactive)	> 100 µM (inactive)	> 85.5 µM (inactive)
